Legend:
Type in all cases: functional, organism-based
Human alphaherpesvirus 2 = test: Antiviral activity against HSV2
Human alphaherpesvirus 1 = test: Antiviral activity against HSV1
[1] = system: Human immunodeficiency virus 1; test: Antiviral activity against HIV1

| Structure (SMILES) | EC50 (Human alphaherpesvirus 2) [µM] | EC50 (Human alphaherpesvirus 1) [µM] | EC50 [1] [µM] |
| --- | --- | --- | --- |
| Nc1nc2c(ncn2COCCO)c(=O)[nH]1 [ACYCLOVIR] | 1 | 1.1 |  |
| O=C(O[C@H]1[C@H](Oc2c(O)cccc2COC(=O)C2(O)C=CCCC2=O)O[C@H](CO)[C@@H](O)[C@@H]1O)c1ccccc1 (stereo partly specified) [COCHINCHISIDE B] | 76 | 76 | > 18 |
| O=C1OC2=C[C@@H](O)CCC2=C1C(O)c1ccccc1 (stereo partly specified) [COCHINOLIDE] | 86 | 31 |  |
| O=c1[nH]cnc2c1ncn2[C@H]1CC[C@@H](CO)O1 [DIDANOSINE] |  |  | 2.1 |
| O=C(O[C@H]1[C@H](Oc2ccccc2COC(=O)[C@]2(O)C=CCC[C@@H]2O)O[C@H](CO)[C@@H](O)[C@@H]1O)c1ccccc1 [TREMULACINOL] | > 188 | > 188 |  |
| O=C(O[C@H]1[C@H](Oc2ccccc2COC(=O)C2(O)C=CCCC2=O)O[C@H](CO)[C@@H](O)[C@@H]1O)c1ccccc1 (stereo partly specified) [TREMULACIN] | 86 | 87 | 52 |
| O=C(O[C@H]1[C@H](Oc2ccccc2CO)O[C@H](CO)[C@@H](O)[C@@H]1O)c1ccccc1 [TREMULDIN] | > 256 | > 256 |  |
| Cc1cn([C@H]2C[C@H](N=[N+]=[N-])[C@@H](CO)O2)c(=O)[nH]c1=O [ZIDOVUDINE] |  |  | 0.02 |

Reference: ChEMBL document CHEMBL1151179, “Isolation of salicin derivatives from Homalium cochinchinensis and their antiviral activities” (J Nat Prod, 2004)
